Values after ≈ are worked out from the molar mass of the structure shown. Structures can show the parent of a compound that is named as a salt. Where two headings read alike, the source gives them in different places.
Key:
Assay type in all cases: cell-based
[1] = tested on: Staphylococcus aureus Smith; assay: minimum inhibitory concentration (MIC), standard method of Japan Society of Chemotherapy; settings: Tables 2A, 2B
Procedure: (§1) The minimum inhibitory concentration (MIC) of the compounds obtained in the above Examples were measured according to the standard method of Japan Society of Chemotherapy.

[2] = tested on: Serratia marcescens GN10857; assay: minimum inhibitory concentration (MIC); settings: Tables 2A, 2B
Procedure: as §1

[3] = tested on: Pseudomonas aeruginosa GN10362; assay: minimum inhibitory concentration (MIC); settings: Tables 2A, 2B
Procedure: as §1

[4] = tested on: Pseudomonas aeruginosa 5D58-1; assay: minimum inhibitory concentration (MIC); settings: 5D581, Tables 2A, 2B
Procedure: as §1

[5] = tested on: Citrobacter freundii GN7391; assay: minimum inhibitory concentration (MIC)
Procedure: as §1

[6] = tested on: Enterobacter cloacae 908RN; assay: minimum inhibitory concentration (MIC)
Procedure: as §1

[7] = tested on: Klebsiella pneumoniae 4at521; assay: minimum inhibitory concentration (MIC); settings: Tables 2A, 2B
Procedure: as §1

[8] = tested on: Pseudomonas aeruginosa 4au542; assay: minimum inhibitory concentration (MIC); settings: Tables 2A, 2B
Procedure: as §1

[9] = tested on: Staphylococcus aureus IAA498; assay: minimum inhibitory concentration (MIC); settings: Tables 2A, 2B
Procedure: as §1

Proteus vulgris GN7919 = assay: minimum inhibitory concentration (MIC)
Procedure: as §1

Escherichia coli GN5482 = assay: minimum inhibitory concentration (MIC); settings: Tables 2A, 2B
Procedure: as §1

Escherichia coli ML4704 = assay: minimum inhibitory concentration (MIC)
Procedure: as §1

[10] = tested on: Enterobacter cloacae GN7471; assay: minimum inhibitory concentration (MIC)
Procedure: as §1

[11] = tested on: Pseudomonas maltophilia OF247; assay: minimum inhibitory concentration (MIC); settings: Stenotrophomonas maltophilia, Tables 2A, 2B
Procedure: as §1

[12] = tested on: Pseudomonas cepacia OF189; assay: minimum inhibitory concentration (MIC); settings: Burkholderia cepacia, Tables 2A, 2B
Procedure: as §1

[13] = Citrobacter freundii GN7391, Tables 2A, 2B, read-out: MIC
[14] = Enterobacter cloacae 908RN, Tables 2A, 2B, read-out: MIC
[15] = Proteus vulgris GN7919, Tables 2A, 2B, read-out: MIC
[16] = Escherichia coli ML4704, Tables 2A, 2B, read-out: MIC
[17] = Enterobacter cloacae GN7471, Tables 2A, 2B, read-out: MIC
[18] = Enterobacter cloacae 908RN, Tables 2A, 2B

| Compound | MIC [1] [µg/mL] | MIC [2] [µg/mL] | MIC [3] [µg/mL] | MIC [4] [µg/mL] | MIC [5, 13] [µg/mL] | MIC [6, 14] [µg/mL] | MIC [7] [µg/mL] | MIC [8] [µg/mL] | MIC [9] [µg/mL] | MIC (Proteus vulgris GN7919; [15]) [µg/mL] | MIC (Escherichia coli GN5482) [µg/mL] | MIC (Escherichia coli ML4704; [16]) [µg/mL] | MIC [10, 17] [µg/mL] | MIC [6, 18] [µg/mL] | MIC [11] [µg/mL] | MIC [12] [µg/mL] | further results |
| --- | --- | --- | --- | --- | --- | --- | --- | --- | --- | --- | --- | --- | --- | --- | --- | --- | --- |
| CON=C(C(=O)NC1C(=O)N2C(C(=O)O)=C(CSc3cc(C)nc4nc(CO)nn34)CSC12)c1csc(N)n1 (stereo not drawn) [Example 17, 7-[2-(2-amino-1,3-thiazol-4-yl)-2-(methoxyimino)acetamido]-3-[(2-hydroxymethyl-5-methyl-s-triazolo[1,5-a]pyrimidin-7-yl)thiomethyl]-3-cephem-4-carboxylic acid.hydrochloride] | 0.39 | 12.5 | 100 | 100 | 50 | 50 | 0.39 | 100 | 12.5 | 25 | 0.1 | 0.025 | 3.13 | – | – | – | – |
| Cc1cc(SCC2=C(C(=O)O)N3C(=O)C(NC(=O)C(=NOC(C)(C)C(=O)O)c4csc(N)n4)[C@H]3SC2)n2nc(CO)nc2n1 (stereo partly drawn) [Example 20, 7-[2-(2-amino-1,3-thiazol-4-yl)-2-(1-carboxy-1-methylethoxyimino)acetamido]-3-[(2-hydroxymethyl-5-methyl-s-triazolo[1,5-a]pyrimidin-7-yl)thiomethyl]-3-cephem-4-carboxylic acid] | 3.13 (≈ 4.72 µM) | 12.5 (≈ 18.8 µM) | 12.5 (≈ 18.8 µM) | 6.25 (≈ 9.42 µM) | > 100 | – | 0.78 (≈ 1.18 µM) | 12.5 (≈ 18.8 µM) | 6.25 (≈ 9.42 µM) | 3.13 (≈ 4.72 µM) | 0.78 (≈ 1.18 µM) | 0.39 (≈ 0.588 µM) | 6.25 (≈ 9.42 µM) | 100 (≈ 151 µM) | – | – | – |
| COCc1nc2nc(C)cc(SCC3=C(C(=O)O)N4C(=O)C(NC(=O)C(=NOC(C)(C)C(=O)NNC(=O)c5ccc(O)c(O)c5)c5csc(N)n5)C4SC3)n2n1 (stereo not drawn) [Example 24, 7-{2-[2-amino-1,3-thiazol-4-yl]-2-[1-(3-(3,4-dihydroxybenzoyl)carbazoyl)-1-methylethoxyimino]acetamido}-3-[(2-methoxymethyl-5-methyl-s-triazolo[1,5-a]-pyrimidin-7-yl)thiomethyl]-3-cephem-4-carboxylic acid.hydrochlride] | 3.13 (≈ 3.78 µM) | 0.39 (≈ 0.471 µM) | 0.05 (≈ 0.0604 µM) | 0.05 (≈ 0.0604 µM) | 12.5 (≈ 15.1 µM) | 6.25 (≈ 7.55 µM) | 0.025 (≈ 0.0302 µM) | 0.2 (≈ 0.242 µM) | 6.25 (≈ 7.55 µM) | 1.56 (≈ 1.88 µM) | 0.025 (≈ 0.0302 µM) | 0.025 (≈ 0.0302 µM) | 3.13 (≈ 3.78 µM) | – | – | – | – |
| COCc1nc2nc(C)cc(SCC3=C(C(=O)O)N4C(=O)C(NC(=O)C(=NOC)c5csc(N)n5)C4SC3)n2n1 (stereo not drawn) [Example 26] | 0.78 (≈ 1.29 µM) | 25 (≈ 41.3 µM) | 100 (≈ 165 µM) | 100 (≈ 165 µM) | 50 (≈ 82.6 µM) | 50 (≈ 82.6 µM) | 1.56 (≈ 2.58 µM) | > 100 | 25 (≈ 41.3 µM) | 25 (≈ 41.3 µM) | 0.39 (≈ 0.644 µM) | 0.05 (≈ 0.0826 µM) | 6.25 (≈ 10.3 µM) | – | – | – | – |
| CC(C)(ON=C(C(=O)NC1C(=O)N2C(C(=O)O)=C(CSc3cc(C(=O)O)nc4nc(CO)nn34)CSC12)c1csc(N)n1)C(=O)NNC(=O)c1ccc(O)c(O)c1 (stereo not drawn) [Example 30, 7-{2-[2-amino-1,3-thiazol-4-yl]-2-[1-(3-(3,4-dihydroxybenzoyl)carbazoyl)-1-methylethoxyimino]acetamido}-3-[(5-carboxy-2-hydroxymethyl-s-triazolo[1,5-a]-pyrimidin-7-yl)thiomethyl]-3-cephem-4-carboxylic acid.hydrochlride] | 12.5 (≈ 14.8 µM) | 0.78 (≈ 0.924 µM) | 0.025 (≈ 0.0296 µM) | 0.1 (≈ 0.119 µM) | 1.56 (≈ 1.85 µM) | 1.56 (≈ 1.85 µM) | 0.025 (≈ 0.0296 µM) | 0.2 (≈ 0.237 µM) | 25 (≈ 29.6 µM) | 3.13 (≈ 3.71 µM) | 0.05 (≈ 0.0593 µM) | 0.025 (≈ 0.0296 µM) | 0.78 (≈ 0.924 µM) | – | – | – | – |
| CON=C(C(=O)NC1C(=O)N2C(C(=O)O)=C(CSc3cc(C(=O)O)nc4nc(CO)nn34)CSC12)c1csc(N)n1 (stereo not drawn) [Example 31] | 6.25 (≈ 10.1 µM) | 25 (≈ 40.2 µM) | 100 (≈ 161 µM) | > 100 | 100 (≈ 161 µM) | – | 0.2 (≈ 0.322 µM) | > 100 | 12.5 (≈ 20.1 µM) | 50 (≈ 80.4 µM) | 0.2 (≈ 0.322 µM) | 0.1 (≈ 0.161 µM) | 6.25 (≈ 10.1 µM) | 100 (≈ 161 µM) | – | – | – |
| Cc1nc2nc(CO)cc(SCC3=C(C(=O)[O-])N4C(=O)C(NC(=O)C(=NOC(C)(C)C(=O)NNC(=O)c5ccc(O)c(O)c5)c5csc(N)n5)[C@H]4SC3)n2n1.[Na+] (stereo partly drawn) [Example 37, sodium 7-{2-[2-amino-1,3-thiazol-4-yl]-2-[1-(3-(3,4-dihydroxybenzoyl)carbazoyl)-1-methylethoxyimino]acetamido}-3-[(5-hydroxymethyl-2-methyl-s-triazolo[1,5-a]pyrimidin-7-yl)thiomethyl]-3-cephem-4-carboxylate] | 3.13 | 0.39 | 0.1 | 0.1 | – | – | 0.012 | 0.2 | 6.25 | – | 0.05 | – | – | – | 0.39 | 0.025 | MIC ([5]; Citrobacter freundii, GN7391): 6.25 µg/mL; MIC [6]: 1.56 µg/mL; MIC (Proteus vulgris GN7919): 1.56 µg/mL; MIC (Escherichia coli ML4704; Escherichia coli, ML4704): 0.1 µg/mL; MIC ([10]; Enterobacter cloacae, GN7471): 1.56 µg/mL |
| CON=C(C(=O)NC1C(=O)N2C(C(=O)O)=C(CSc3cc(CO)nc4nc(C)nn34)CSC12)c1csc(N)n1 (stereo not drawn) [Example 38] | 0.78 (≈ 1.32 µM) | 25 (≈ 42.3 µM) | 100 (≈ 169 µM) | 100 (≈ 169 µM) | 25 (≈ 42.3 µM) | 50 (≈ 84.5 µM) | 0.78 (≈ 1.32 µM) | > 100 | 12.5 (≈ 21.1 µM) | 6.25 (≈ 10.6 µM) | 0.1 (≈ 0.169 µM) | 0.05 (≈ 0.0845 µM) | 3.13 (≈ 5.29 µM) | – | 50 (≈ 84.5 µM) | 25 (≈ 42.3 µM) | – |
| CC(C)(ON=C(C(=O)NC1C(=O)N2C(C(=O)[O-])=C(CSc3cc(CO)nc4nc(CO)nn34)CS[C@H]12)c1csc(N)n1)C(=O)NNC(=O)c1ccc(O)c(O)c1.[Na+] (stereo partly drawn) [Example 42, sodium 7-{2-[2-amino-1,3-thiazol-4-yl]-2[1-(3-(3,4-dihydroxybenzoyl)carbazoyl)-1-methylethoxyimino]acetamido}-3-[(2,5-bis(hydroxymethyl)-s-triazolo[1,5-a]pyrimidin-7 yl)thiomethyl]-3-cephem-4-carboxylate] | 3.13 | 0.39 | 0.1 | 0.1 | – | – | 0.2 | 0.2 | 6.25 | – | 0.1 | – | – | – | 0.78 | 0.025 | MIC ([5]; Citrobacter freundii, GN7391): 6.25 µg/mL; MIC [6]: 3.13 µg/mL; MIC (Proteus vulgris GN7919): 3.13 µg/mL; MIC (Escherichia coli ML4704; Escherichia coli, ML4704): 0.1 µg/mL; MIC ([10]; Enterobacter cloacae, GN7471): 1.56 µg/mL |
| Cc1cc(SCC2=C(C(=O)O)N3C(=O)C(NC(=O)C(=NOC(C)(C)C(=O)NN)c4csc(N)n4)C3SC2)n2nc(CO)nc2n1 (stereo not drawn) [Example 43, 7-[2-(2-amino-1,3-thiazol-4-yl)-2-(1-carbazoyl-1-methylethoxyimino)acetamido]-3-[(2-hydroxymethyl5-methyl-s-triazolo[1,5-a]pyrimidin-7-yl)thiomethyl]-3-cephem-4-carboxylate.dihydrochloride] | 6.25 | 50 | 25 | 25 | 100 | – | 3.13 | 100 | 12.5 | 50 | 0.39 | 0.2 | 25 | > 100 | 50 | 50 | – |
